The source of these data is patent US9682071B2, “Methods of improving microvascular integrity” (INTERMUNE, INC., priority 2013, dated 2017).

Structures are written as SMILES.

The test deals with trachea allograft mouse model of acute transplant rejection. The experiment in a line: murine orthotopic tracheal transplant model (allograft rejection). The format is in vivo. The note with it: for tissue oxygenation (pO2): pirfenidone-treated allografted mice vs untreated allografted controls, over time post-transplantation (FIG. 3), pO2 in mm Hg. Here is the method:
Pirfenidone was tested in a murine orthotopic tracheal transplant model, as generally described in Babu et al., J Clin Invest. 2007; 117(12):3774-3785. In this model in which allograft rejection occurs, typically perfusion ceases after a fixed period of time which is highly reliable (10 days). […] Perfusion is later restored on rejecting allografts as recipient-derived vessels neovascularize the transplant on d28. In contrast, mice receiving syngeneic (identical) grafts maintain tissue oxygenation at approximately the same levels throughout. Magnified images of the microvasculature, obtained after i.v. injection of FITC-conjugated (green) tomato lectin to bind and identify perfused vasculature, are shown in FIG. 1B.

`Cc1ccc(=O)n(-c2ccccc2)c1` [Pirfenidone, 5-methyl-1-phenyl-2-(1H)-pyridone]: the “tissue oxygenation (pO2)” value is listed as “maintained tissue oxygenation at approximately the same levels throughout the time period shown”. Under “allograft recipients fed pirfenidone in their chow”, the fibrosis result is “significantly attenuated”. In addition, where the note is “allograft recipients fed pirfenidone in their chow, vs control allografted mice receiving no treatment”, the “perfused vasculature (FITC-conjugated tomato lectin images)” value is given as “the vasculature is protected”. For the same compound, for the setting “pirfenidone in chow, days 10 and 12 post-transplantation, FITC-lectin images (FIG. 2)”, the “appearance of vasculature at days 10 and 12” value is given as “robust”. Where the note is “pirfenidone-treated allografted mice (FIG. 3)”, the “time vasculature is preserved” value is given as “at least 12 days post-transplantation”. Also, the “tissue oxygenation (pO2)” value (listed as pirfenidone) is “maintaining tissue oxygenation levels at the same levels through at least day 12”.
